The nature of this data set: in vitro. As to conditions: human, hela cells, % viability.

In the case of `COc1ccc(-c2cc(C(=O)NCC(O)c3ccc4ccccc4c3)cnc2-c2ccccc2)cn1` (stereo not drawn) [CBK037562], the viability (usually a read-out of living cells in per cent, often relative to untreated cells) at 28.5 h, 10 µM amounted to 103%.
On the same count and under the same terms, with `O=C(CSc1nnc(-c2ccncc2)o1)c1ccccc1` [CBK070562] the figure was 87.5%; with `Cc1ccc(-c2nc3ccccc3[nH]2)cc1` [CBK085933], 89.9%; with `CCOC(=O)CSc1nc(C)cc(Oc2ccc(=O)n(C)n2)n1` [CBK269476], 101%.
For the compound `COc1ccc(/C(C#N)=C/c2ccc(-c3ccc(C(=O)O)cc3)o2)cc1OC` [CBK268953], the viability at 28.5 h, 10 µM is 108%.
The same measure, in the same setting: with `O=C(C1=C(O)C(=O)N(CCN2CCOCC2)C1c1ccco1)c1cccs1` (stereo not drawn) [CBK264506] the figure was 96%; with `COc1ccc(CC(=O)NCc2nc(-c3ccc(OC)cc3)no2)cc1` [CBK270043], 92%.
Same read-out and setting: the same measure for `CCOC(=O)c1c(-c2ccc(OC)cc2)noc1C(=O)c1ccccc1` [CBK002295]: 89.7%.
Same read-out and setting: the same measure for `CNC(=O)Nc1cccc(S(N)(=O)=O)c1` [CBK023839]: 89.1%.
With `COc1ccc(-c2nnc(SCC(=O)Nc3cc(C)on3)n2C2CCCCC2)cc1` [CBK297510], the viability at 28.5 h, 10 µM turned out to be 84.1%.
As for `O=C(/C=C/c1ccccc1)NC(NCc1cccnc1)C(Cl)(Cl)Cl` (stereo not drawn) [CBK261804], the viability at 28.5 h, 10 µM was found to be 95.3%.
Same read-out and setting: the same measure for `CC(=O)Nc1ccc(N2C(=O)CC(N3CCN(Cc4ccc5c(c4)OCO5)CC3)C2=O)cc1` (stereo not drawn) [CBK265217]: 106%; for `Nc1ncc(-c2ccc(C(F)(F)F)cc2)c(C2CCCN(C(=O)CN3CCCC3)C2)n1` (stereo not drawn) [CBK285649]: 91.6%; for `CCCN1CCC(=NNC(=O)c2c[nH]c3ccccc23)CC1` [CBK262597]: 95.3%.
Same read-out and setting: with `O=S(=O)(NCc1cccnc1)c1ccc(Cl)c2ccccc12` [CBK264008] the figure was 89.5%.
On the same count and under the same terms, the same measure for `CS(=O)(=O)N1CCc2cc(C(=O)Cn3nc(C(=O)O)c4ccccc4c3=O)ccc21` [CBK297000]: 80.4%; for `c1ccc(Oc2ccc(Nc3cc(-c4ccc(N5CCOCC5)cc4)ncn3)cc2)cc1` [CBK090923]: 83.3%.
With `O=C(CCn1cnc2ccccc2c1=O)Nc1ccccc1C(F)(F)F` [CBK270056], the viability at 28.5 h, 10 µM amounted to 101%.
The same measure, in the same setting: the same measure for `O=C(NCCCn1ccnc1)c1cccnc1-c1nc2ccccc2s1` [CBK269939]: 90.5%; for `COc1ccc(C(=O)[C@H]2CCCN(C(=O)c3ccco3)C2)cc1` [CBK284327]: 99.7%.
On the same count and under the same terms, with `Nc1ncc(-c2ccoc2)nc1NCc1ccco1` [CBK063652] the figure was 97.2%.
Turning to `Cc1ccc(S(=O)(=O)NC(C)(C)CSc2ccccn2)cc1` [CBK266360], the viability at 28.5 h, 10 µM turned out to be 86.1%.
Same read-out and setting: the same measure for `COC(=O)c1cccn2cc(CN3CCOCC3(C)C)nc12` [CBK304879]: 93.8%; for `O=C(OCCc1cccnc1)N1CCC(C(F)(F)F)CC1` [CBK200159]: 94.9%.
On the same count and under the same terms, with `CCN(CCN1CCOCC1)C(=O)c1[nH]c2c(F)cccc2c1C` [CBK306772] the figure was 90.3%; with `COc1cccc(-c2cccc(C3CCCN(C(=O)Cc4c[nH]c5ccccc45)C3)n2)c1` (stereo not drawn) [CBK286207], 114%.
As to `Cc1cnoc1-c1cc(Cl)cc(Cl)c1O` [CBK015870], the viability at 28.5 h, 10 µM worked out at 89.3%.
Turning to `C/C(C(=O)O)=C(/C)C(=O)N1CCC2(C1)NCCc1c2[nH]c2ccccc12` (stereo not drawn) [CBK046995], the viability at 28.5 h, 10 µM came to 100%.
For `Cc1noc(C)c1CS(=O)(=O)Cc1ccc(Cl)cc1` [CBK034194], the viability at 28.5 h, 10 µM was 84.9%.
As to `Cc1cc2ncc3c(n2n1)CC1CCC3N1C(=O)c1cccs1` (stereo not drawn) [CBK284415], the viability at 28.5 h, 10 µM came to 103%.
The same measure, in the same setting: with `N#Cc1ccc(Cn2ccnc(N3CCC(Sc4ccccc4)CC3)c2=O)cc1` [CBK153653] the figure was 98.2%; with `COc1ccc(CN(CCN(C)C)C(=O)NCc2ccc(Cl)cc2)cc1OC` [CBK159303], 87.7%.
In the case of `C#CCNC(=O)[C@@H]1Cc2cn(Cc3c(C)noc3C)c3cccc(c23)[C@H](CC(C)C)N1` [CBK289425], the viability at 28.5 h, 10 µM turned out to be 93.7%.
The same measure, in the same setting: with `O=C(O)CCNS(=O)(=O)c1cccc(Cl)c1` [CBK267328] the figure was 106%; with `CNCS(=O)(=O)C(F)(F)S(=O)(=O)N(C)C` [CBK018820], 89.7%; with `Cc1c(CN(Cc2cccc(F)c2)CC2CCCO2)cnn1C` (stereo not drawn) [CBK282953], 89.9%.
Still for that read-out and setting: with `O=C(Nc1ccccc1)Nc1ccc2c(c1)S(=O)(=O)c1cc(NC(=O)Nc3ccccc3)ccc1-2` [CBK262320] the figure was 94.6%; with `O=C(Nc1ncccn1)C1CCCCC1` [CBK027567], 98.3%.
For the compound `CNCCc1csc2ccc(C)cc12` [CBK026097], where the note is “bulk resorufin, single well”, the viability at 28.5 h, 10 µM is 91.6%.
The same measure, in the same setting: the same measure for `O=C(O)C=CC(=O)Nc1ccc(SC(F)(F)C(F)(F)C(F)(F)F)cc1` [CBK296104]: 107%.
`CCOc1ccc(C(=O)Nc2nc(-c3ccc(F)cc3)cs2)cc1` [CBK072020]: the viability at 28.5 h, 10 µM was 91%.
Still for that read-out and setting: with `CC(C)C[C@H](NC(=O)NCCN1CCOCC1)C(=O)O` [CBK286619] the figure was 99.4%; with `CCn1cc(CN(CCN(C)C)Cc2cccs2)c(C)n1` [CBK283037], 101%.
Turning to `CCN(C)c1c(C)nc2c(OCC(=O)N(C)C)cccn12` [CBK147316], the viability at 28.5 h, 10 µM is 107%.
The same measure, in the same setting: the same measure for `CC(C)(CC(=O)O)CC(=O)Nc1ccc(-c2nc3ccccc3s2)cc1` [CBK299796]: 104%; for `CCn1c(C)nc2cc(NC(=O)Cc3c(C)noc3C)ccc21` [CBK281834]: 100%.
Consider `COc1ccc(OC)c(NC(=O)CSc2nnc(-c3ccncc3)s2)c1` [CBK269209], for which the viability at 28.5 h, 10 µM was 97.2%.
Consider `CCNc1nc(Sc2ccc(Cl)cc2)cc(C(F)(F)F)n1` [CBK003349], for which the viability at 28.5 h, 10 µM was 79.4%.
Still for that read-out and setting: with `CCOC(=O)c1[nH]c2ccccc2c1NC(=O)c1ccc(Br)cc1Cl` [CBK160147] the figure was 91.3%; with `O=C(CC1CCS(=O)(=O)C1)NC1(c2ccc(Cl)cc2)CC1` (stereo not drawn) [CBK282773], 97.6%.
The same measure, in the same setting: with `COC(=O)CSc1nnc(-c2cc(Cl)ccc2OC)[nH]1` [CBK270248] the figure was 97%; with `Cc1cc(S(=O)(=O)Nc2ccc3[nH]ccc3c2)c(C)o1` [CBK155743], 71.4%; with `COc1cncc(-c2cnc(N)c(N3CCOCC3)n2)c1` [CBK063360], 96.7%.
The same measure, in the same setting: with `O=C(NCCc1ccc(O)cc1)c1ccc2[nH]ccc2c1` [CBK149063] the figure was 89.5%; with `CCc1nc(C)c(C(C)N(C)CC(=O)NCc2ccco2)s1` (stereo not drawn) [CBK305203], 86.6%; with `COC(=O)N1CCC(C(=O)NC(c2ccccc2)c2ncccc2C)CC1` (stereo not drawn) [CBK059885], 92.6%.
On to `O=C(O)c1ccc(N2C(=O)CC(N3CCN(Cc4ccccc4)CC3)C2=O)cc1` (stereo not drawn) [CBK261403], for which the viability at 28.5 h, 10 µM worked out at 94.7%.
On to `CC(C)(C)NC(=O)COc1ccc(CNc2ccc(C(=O)O)c(Cl)c2)cc1` [CBK287230], for which the viability at 28.5 h, 10 µM stood at 111%.
For the compound `Cc1cc(NC(=O)CN2CCN(Cc3ccc(Cl)nc3)CC2)no1` [CBK305504], the viability at 28.5 h, 10 µM turned out to be 104%.
Same read-out and setting: the same measure for `Cc1cc(C)c(-n2nnnc2SCc2ccc(F)cc2)c(C)c1` [CBK100994]: 103%; for `COc1ccc(C(CC(=O)O)NC(=O)c2ccc(Cl)cc2Cl)cc1` (stereo not drawn) [CBK269131]: 91.8%.
Consider `Clc1ccc(OCCOc2cncc(N3CCCC3)n2)cc1` [CBK115668], for which the viability at 28.5 h, 10 µM came to 87.4%.
Same read-out and setting: the same measure for `NS(=O)(=O)c1ccc(CCNC(=O)Nc2ccc(Cl)c(Cl)c2)cc1` [CBK269133]: 90.3%.
As for `CCOc1cccc(-c2cn3ccnc3c(NCCc3ccccn3)n2)c1` [CBK066586], the viability at 28.5 h, 10 µM was found to be 94.4%.
As to `O=C(C1=C(O)C(=O)N(CCCN2CCOCC2)C1c1cccnc1)c1cccs1` (stereo not drawn) [CBK264555], the viability at 28.5 h, 10 µM was determined as 113%.
On the same count and under the same terms, the same measure for `COC(=O)/N=C1/Nc2ccccc2CN1CC(N)=O` [CBK007160]: 91.9%.
On to `COc1cccc(-c2noc(C3CCN(CCc4ccccc4)CC3)n2)c1` [CBK051455], for which the viability at 28.5 h, 10 µM came out at 99.7%.
On to `O=C(Cc1nnc(-c2ccncc2)o1)NCCC1=CCCCC1` [CBK288605], for which the viability at 28.5 h, 10 µM was 117%.
Same read-out and setting: the same measure for `NS(=O)(=O)c1ccc(Nc2nc3nonc3nc2Nc2ccc(S(N)(=O)=O)cc2)cc1` [CBK261110]: 97.5%; for `Cn1c(=O)c2c(ncn2CC(=O)Nc2ccccc2I)n(C)c1=O` [CBK133275]: 95.6%.
In the case of `Cc1noc(C)c1CNS(=O)(=O)N1CCOC(c2ccccc2)C1` (stereo not drawn) [CBK305306], the viability at 28.5 h, 10 µM is 83.2%.
Same read-out and setting: with `C=CCOc1c(Br)cc(CNc2cccc(C(=O)O)c2)cc1OC` [CBK074581] the figure was 97.3%.
The same measure, in the same setting: the same measure for `Cc1nn(C)c(Cl)c1S(=O)(=O)Nc1cccnc1N1CCOCC1` [CBK062286]: 99.5%; for `Cc1ccc(NC(=O)N2CCn3cccc3C2c2cccnc2)cc1` (stereo not drawn) [CBK287733]: 87.1%; for `O=C(CCc1ccco1)N1CCCCC1c1nc2ccccc2[nH]1` (stereo not drawn) [CBK283711]: 99.9%.
Turning to `COc1ccc(C(NC(=O)c2ccc(N3C(=O)CCC3=O)cc2)c2ccccc2)cc1` (stereo not drawn) [CBK285737], the viability at 28.5 h, 10 µM is 93%.
The same measure, in the same setting: with `CCC(=O)N1CCCCC(NS(=O)(=O)c2ccc(-n3cccn3)cc2)C1` (stereo not drawn) [CBK307398] the figure was 82.5%; with `Cc1c(Cl)cc(C(C)C)c(O)c1CNC(=O)CSc1nnc(-c2cccs2)n1C` [CBK267416], 94.6%; with `CCOC(=O)C(C)n1nc(C)n2c(cc3sc(C)cc32)c1=O` (stereo not drawn) [CBK284066], 76.8%.
Same read-out and setting: with `CC(Cc1nc(C2(Cl)CC2)cs1)n1cc(Cl)cn1` (stereo not drawn) [CBK304715] the figure was 85.5%.
`Cc1nc2cccnc2n1CCNC(=O)Cc1cccs1` [CBK283592]: the viability at 28.5 h, 10 µM is 107%.

The values are drawn from article PMC12040169 (PLOS Biology, 2025).
